# Several values for one entry are separate records, joined by “and”; a condition that tells them apart may be missing. Identical values can stand only once.
# Tests used:
# Sox-9 = test: real-time PCR, chondrogenic gene Sox-9 in hADSCs in HA-coated or non-coated wells; assay type: cell-based, human; conditions: 1 μM simvastatin, with or without 1% HA coating, 1 to 5 days
# Procedure: (§1) Human adipose-derived stem cells (hADSCs) were cultured in wells coated with hyaluronic acid (HA) and without hyaluronic acid (non-HA), and treated with or without 1 μM of simvastatin (SIM) for 1 to 5 days. […]
# (§2) Cells were harvested on designated days and analyzed for the expression of BMP-2 and chondrogenic genes using real-time PCR. […] Real-time PCR reactions were performed and monitored by using iQTM SYBR Green® supermix (Bio-Rad Laboratories Inc, Hercules, Calif.) and a quantitative real-time PCR detection system (Bio-Rad Laboratories Inc, Hercules, Calif.). […] The expression level of each of the target genes, as previously described, was calculated as 2-ΔΔCt. For each gene of interest, four readings were performed for each of the experimental samples, each experiment was repeated for at least three times. […]
# [1] = tested on: human adipose-derived stem cells (hADSCs); test: sGAG formation (DMMB analysis) in hADSCs cultured in wells coated with or without hyaluronic acid; assay type: cell-based; conditions: day 7, standardized with DNA
# Procedure: Sulfated glycosaminoglycan (sGAG) is a major extracellular matrix of articular cartilage. In order to test whether simvastatin can promote the expression of sGAG in human adipose-derived stem cells (hADSCs) and its optimal concentration, the present invention first prepared hyaluronic acid (HA) coated wells by coating hyaluronic acid dissolved in 1 ml of phosphate buffer (PBS, 1% w/w) on a 24-well plate, standing at 37° C. for 48 hours, then washed with PBS two times. Human adipose-derived stem cells were seeded in wells containing 500 μl of basal medium at a density of 1×10^5 cells per well, wherein the basal medium contains Dulbecco's modified Eagle's medium (DMEM), and was additionally supplemented with 5% fetal bovine serum (FBS), 1% nonessential amino acids and 100 U/ml of penicillin/streptomycin (Gibco-BRL, Grand Island, N.Y.). During the culturing period, simvastatin at different concentrations (0.1 to 1 μM) was added to the well plate, and the medium was replaced with fresh one every two days. On day 7 after the cultivation started, cells were collected for dimethylmethylene blue (DMMB) analysis with Blyscan sulfated glycosaminoglycan reagent (Biocolor, Antrim, UK), and for standardization of sulfated glycosaminoglycan (sGAG) formation with DNA.
# Col II = test: real-time PCR, chondrogenic gene Col II in hADSCs in HA-coated or non-coated wells; assay type: cell-based, human; conditions: 1 μM simvastatin, with or without 1% HA coating, 1 to 5 days
# Procedure: as §1, §2
# BMP-2 = test: real-time PCR, BMP-2 gene expression in hADSCs in HA-coated or non-coated wells; assay type: cell-based, human; conditions: relative to Non-HA group day 1 = 1, simvastatin 1 μM, HA 1%
# Procedure: Human adipose-derived stem cells (hADSCs) were cultured in wells coated with hyaluronic acid (HA) and without hyaluronic acid (non-HA), and treated with or without 1 μM of simvastatin (SIM) for 1 to 5 days. The present invention was therefore divided into four experimental groups: (1) No hyaluronic acid (Non-HA) group: human adipose-derived stem cells were cultured in wells not coated with hyaluronic acid and not treated with simvastatin (1 μM); (2) No hyaluronic acid plus simvastatin (Non-HA+Sim) group: human adipose-derived stem cells were cultured in wells not coated with hyaluronic acid but treated with simvastatin (1 μM); (3) Hyaluronic acid (HA) group: human adipose-derived stem cells were cultured in wells coated with hyaluronic acid but not treated with simvastatin (1 μM); and (4) Hyaluronic acid plus simvastatin (HA+Sim) group: human adipose-derived stem cells were cultured in wells coated with hyaluronic acid and treated with simvastatin (1 μM).
# Cells were harvested on designated days and analyzed for the expression of BMP-2 and chondrogenic genes using real-time PCR. Total RNA of these cells was extracted by following the manufacturer's instructions and using TRIzol reagent (Gibco BRL, Rockville, Md.). In short, a reaction volume of 20 μl was taken which contained 0.5 to 1 μg of total RNA, and then RNA was reverse-transcribed into cDNA by using the SuperScript First-Strand Synthesis System (Invitrogen). Real-time PCR reactions were performed and monitored by using iQTM SYBR Green® supermix (Bio-Rad Laboratories Inc, Hercules, Calif.) and a quantitative real-time PCR detection system (Bio-Rad Laboratories Inc, Hercules, Calif.). […] The expression level of each of the target genes, as previously described, was calculated as 2-ΔΔCt. For each gene of interest, four readings were performed for each of the experimental samples, each experiment was repeated for at least three times. […]
# osteocalcin = test: real-time PCR, osteocalcin gene expression in hADSCs in HA-coated or non-coated wells; assay type: cell-based, human; conditions: day 1 to day 5; relative to Non-HA group day 1 = 1; simvastatin 1 μM
# Procedure: as §1, §2
# aggrecan = test: real-time PCR, chondrogenic gene aggrecan in hADSCs in HA-coated or non-coated wells; assay type: cell-based, human; conditions: 1 μM simvastatin, with or without 1% HA coating, 1 to 5 days
# Procedure: as §1, §2
smiles,measurement,setting,value
CCC(C)(C)C(=O)O[C@H]1C[C@@H](C)C=C2C=C[C@H](C)[C@H](CC[C@@H]3C[C@@H](O)CC(=O)O3)[C@H]21 [simvastatin],expression of chondrogenic gene Sox-9,Sox-9,failed to effectively enhance
same,expression level of sGAG,"[1]; absence of hyaluronic acid (Non-HA), simvastatin 0.1 μM",0.5 µg/µg
same,expression level of sGAG,"[1]; absence of hyaluronic acid (Non-HA), simvastatin 0.5 μM",0.5 µg/µg
same,expression level of sGAG,"[1]; absence of hyaluronic acid (Non-HA), simvastatin 1 μM",0.7 µg/µg
same,expression level of sGAG,"[1]; presence of 1% hyaluronic acid, simvastatin 0.1 μM",1.3 µg/µg
same,expression level of sGAG,"[1]; presence of 1% hyaluronic acid, simvastatin 0.5 μM",2.5 µg/µg
same,expression level of sGAG,"[1]; presence of 1% hyaluronic acid, simvastatin 1 μM",2.8 µg/µg
same,expression of chondrogenic gene Col II,Col II,failed to effectively enhance
same,expression of BMP-2 gene,BMP-2; day 1,1.2 fold
same,expression of BMP-2 gene,BMP-2; day 3,0.8 fold
same,expression of BMP-2 gene,"BMP-2; day 5, listed as Non-HA+Sim",1.1 fold and 2.1 fold
same,expression of osteocalcin gene,osteocalcin,significantly increased
same,expression of chondrogenic gene aggrecan,aggrecan,failed to effectively enhance
